In this experiment the test system is Salmonella outer membrane. As to the kind of experiment: Outer membrane permeabilization (NPN fluorescence). The format is cell-based, Salmonella enterica serovar Typhimurium strain SL1344. Conditions: KFF-ASOs 10 µM, CTAB 10 µM, PMXB 0.4 µM; added after 14 min. The text has this:
Because the negASOs are ineffective in bacterial cells despite their activity in cell-free systems, we investigated if these ASOs affected the ability of the KFF carrier peptide to induce OM permeabilization. Therefore, we used the hydrophobic fluorophore N-phenylnaphthylamine (NPN), a dye that turns fluorescent after binding to hydrophobic regions within cell membranes. This only occurs in cells with a compromised OM ([Ghosh et al. 2016]; [Ellis et al. 2019]). […] However, when conjugated to negASOs, the KFF carrier is unable to permeabilize the OM (Fig. 10). This could potentially be due to electrostatic interactions between the negASOs and the positively charged KFF.
The experiments were performed by modifying previously published protocols ([Ghosh et al. 2016]; [Ellis et al. 2019]; [Zheng et al. 2021]). Salmonella (WT SL1344, JVS-1574) were grown overnight in 4 mL MHB medium at 37°C (with shaking at 220 rpm). Then the culture was diluted 1:100 and grown until OD600 0.5 (∼2 × 10^8 cfu/mL). This culture was harvested and washed two times with 5 mM HEPES and further diluted to OD600 0.2 in 5 mM HEPES supplemented with 5 mM Glucose (pH 7.2). These cells were then incubated with NPN (Sigma) at a final concentration of 10 µM. One hundred and ninety microliters of NPN-treated cells were transferred into 96-well back plates with transparent bottoms and fluorescence (excitation = 350 nm, emission = 420 nm) was recorded for 60 min (reading was performed every minute) using a Synergy H1 plate reader (Biotek). On the 14th minute, 10 µL of the test compounds (10 µM final concentration) was added into the wells. CTAB (Sigma) 10 µM (final concentration) or PMXB (Sigma) (final concentration of 0.4 µM) were used as positive controls, while water was used as negative control. The fluorescence of the wells was monitored using the same settings as above. The plots were created using OrginPro 2023. The experiment was performed twice and Figure 10 is a representative example of two independent experiments.

With `CCCCCCCCCCCCCCCC[N+](C)(C)C.[Br-]` [CTAB, reference compound], the “Outer membrane permeabilization, NPN fluorescence (in words)” value is “cause a rapid increase in fluorescence”.

Turning to Polymyxin B [reference compound], the “Outer membrane permeabilization, NPN fluorescence (in words)” value is “cause a rapid increase in fluorescence”.

The record behind these values is article PMC11098465, “A comparative analysis of peptide-delivered antisense antibiotics using diverse nucleotide mimics” (RNA, 2024).
